Assay results from patent publication US5981521A, “Tetrahydroisoquinoline derivatives as LHRH antagonists” (Abbott Laboratories, priority 1998, dated 1999).
Counter-ions that a name gives are not always drawn.

biological target: T1, LHRH rat pituitary receptor (Rattus norvegicus, UniProt P30969); assay: LHRH rat pituitary receptor binding; details: Table 1: compounds of formula (V), by n and R1
T1 construct: from tissue; host or cells: rat pituitary
T1 sequence (P30969 1-327): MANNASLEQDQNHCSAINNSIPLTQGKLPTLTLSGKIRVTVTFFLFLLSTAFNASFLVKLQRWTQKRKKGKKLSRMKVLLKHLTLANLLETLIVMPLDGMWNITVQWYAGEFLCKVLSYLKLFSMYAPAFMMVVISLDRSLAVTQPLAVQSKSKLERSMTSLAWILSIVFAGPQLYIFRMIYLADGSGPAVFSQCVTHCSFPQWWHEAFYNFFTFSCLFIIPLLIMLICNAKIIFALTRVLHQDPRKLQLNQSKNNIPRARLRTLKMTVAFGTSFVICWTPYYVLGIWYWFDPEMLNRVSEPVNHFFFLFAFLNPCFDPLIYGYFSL
Experimental: Representative compounds of the present invention were evaluated in vitro for potency against for LHRH rat pituitary receptor binding [pK, ]. Methods for the assay procedures are 10 described in […] al. J Med. Chem., 32: 2340-2344 (1989). Values of pK, are the negative logarithms of the equilibrium dissociation constant of the particular antagonist test compound for the receptor binding. […] Leuprolide LHRH agonist, disclosed and claimed in U.S. Pat. No. 4,005, 063, has the structure 5-oxo-[…].

Point of comparison: `COc1cc2c(cc1OC)C(CCCCN1C(=O)c3ccccc3C1=O)N(CCCC(CCCNC(=O)CCc1ccc(F)cc1)(c1ccccc1)c1ccccc1)CC2` (centres unmarked) [Example 24, 7-[N-3-(4-Fluorophenyl)propionyl]amino-1-[N-F 1,2,3,4-tetrahydro-1-(4-N-phthalimidobutyl)-6,7-dimethoxyisoquinolinyl)]-4,4-diphenylheptane hydrochloride], Ki 0.407 nM. Against it:
- COc1cc2c(cc1OC)C(c1ccc(N)cc1)N(CCCC(CCCNC(=O)CCc1ccc(F)cc1)(c1ccccc1)c1ccccc1)CC2 (centres unmarked) [Example 15, 7-[N-3-(4-Fluorophenyl)propionyl]amino-1-[N-(1.2.3 .4-tetrahydro-1-(4-aminophenyl)-6,7-dimethoxyisoguinolinyl)1-4.4-diphenylheptanedihydrochloride] — 7.2-fold higher, 2.95 nM
- COc1cc2c(cc1OC)C(C1CCC(CN)CC1)N(CCCC(CCCNC(=O)CCc1ccc(F)cc1)(c1ccccc1)c1ccccc1)CC2 (centres unmarked) [Example 37, 7-[N-3-(4-Fluorophenyl)propionyl]-1-[N-(1,2,3,4-tetrahydro-1-(4-aminomethylcyclohexyl)-6,7-dimethoxyisoquinolinyl)1-4.4-diphenylheptanedihydrochloride] — 9.8-fold higher, 3.98 nM
- COc1cc2c(cc1OC)C(CCc1ccccc1)N(CCCC(CCCNC(=O)CCc1ccc(F)cc1)(c1ccccc1)c1ccccc1)CC2 (centres unmarked) [Example 20, 7-[N-3-(4-Fluorophenyl)propionyl]amino-1-[N-(1,2,3,4-tetrahydro-1-phenethyl-6,7-dimethoxy - isoguinolinyl)]-4,4-diphenylheptane hydrochloride] — 62-fold higher, 25.1 nM
- COc1cc2c(cc1OC)C(C)N(CCCCC(CCCNC(=O)CCc1ccc(F)cc1)(c1ccccc1)c1ccccc1)CC2 (centres unmarked) [Example 45] — 87-fold higher, 35.5 nM
- COc1cc2c(cc1OC)C(CCCCN(CC1CC1)CC1CC1)N(CCCC(CCCNC(=O)CCc1ccc(F)cc1)(c1ccccc1)c1ccccc1)CC2 (centres unmarked) [Example 32, 7-[N-3-(4-Fluorophenyl)pronionyl]amino-1-N-(1,2,3,4-tetrahydro-1-(4-N. N-dicycloprovylmethylamino)butyl-6,7-dimethoxyisoguinolinyl)1-4,4-diphenylheptane dihydrochloride] — 1.6-fold higher, 0.631 nM
- CCC1c2cc(OC)c(OC)cc2CCN1CCCC(CCCNC(=O)CCc1ccc(F)cc1)(c1ccccc1)c1ccccc1 (centres unmarked) [Example 5, 7-[N-3-(4-Fluorophenyl)Propionyl]amino-1-[N-(1,2,3,4-tetrahydro-1-ethyl-6.7-dimethoxyisoquinolinyl)]1-4.4-diphenylheptane hydrochloride] — 3.9-fold higher, 1.58 nM
- COc1cc2c(cc1OC)C(Cc1ccc(N)cc1)N(CCCC(CCCNC(=O)CCc1ccc(F)cc1)(c1ccccc1)c1ccccc1)CC2 (centres unmarked) [Example 21, 7-[N-3-(4-Fluorophenol)propionyl]amino-1-F(N-[1,2,3,4-tetrahydro-1-(4-aminobenzyl)-6,7-dimethoxyisoguinolinyl)1-4.4-diphenylheptanedihydrochloride] — 5.6-fold lower, 0.0724 nM
- COc1cc2c(cc1OC)C(CCCCN)N(CCCC(CCCNC(=O)CCc1ccc(F)cc1)(c1ccccc1)c1ccccc1)CC2 (centres unmarked) [Example 25, 7-[N-3-(4-Fluorophenyl)propional]-1-[N-(1,2,3,4-tetrahydro-1-(4-aminobutyl)-6,7-dimethoxyisoquinolinyl)]-4,4-diphenylhentane dihydrochloride] — 2.2-fold lower, 0.186 nM
- COc1cc2c(cc1OC)C(CCCCNC(C)c1ccccc1)N(CCCC(CCCNC(=O)CCc1ccc(F)cc1)(c1ccccc1)c1ccccc1)CC2 (stereo not drawn) [Example 31, 7-[N-3-(4-Fluorophenyl)prol)ionyl]amino-1-[N-(1,2,3,4-tetrahydro-1-(4-(N-alpha-methylbenzylamino)butyl-6,7-dimethoxyisoguinolinyl)]-4,4-diphenylheptane dihydrochloride] — 9.8-fold higher, 3.98 nM

Point of comparison: `COc1cc2c(cc1OC)C(Cc1ccccc1)N(CCCC(CCCNC(=O)CCc1ccc(F)cc1)(c1ccccc1)c1ccccc1)CC2` (centres unmarked) [Example 17, 7-[N-3-(4-Fluorophenyl)propionyl]amino-1-[N-(1,2,3,4-tetrahydro-1-benzyl-6,7-dimethoxyisoguinolinyl)1-4.4-diphenylheptane hydrochloride], pKI 8.56. Against it:
- COc1cc2c(cc1OC)C(CN)N(CCCC(CCCNC(=O)CCc1ccc(F)cc1)(c1ccccc1)c1ccccc1)CC2 (centres unmarked) [Example 22, 7-[N-3-(4-Fluorophenyl)propionyl]amino-1-[N-(1,2.3,4-tetrahydro-1-aininomethyl-6,7-dimethoxyisoguinolinyl)1-4.4-diphenylheptanedihydrochloride] — higher, 9.24
- COc1cc2c(cc1OC)C(CCCCNCCC(C)C)N(CCCC(CCCNC(=O)CCc1ccc(F)cc1)(c1ccccc1)c1ccccc1)CC2 (centres unmarked) [Example 30, 7-[N-3-(4-Fluorophenyl)propionyl]amino-1-[N-(1,2,3,4-tetrahydro-1-(4-N-isopentylamino)butyll-6,7-dimethoxyisoquinolinyl)1-4.4-diphenylheptanedihydrochloride] — lower, 8.00
- COc1cc2c(cc1OC)C(CCCCNC1CCC1)N(CCCC(CCCNC(=O)CCc1ccc(F)cc1)(c1ccccc1)c1ccccc1)CC2 (centres unmarked) [Example 28, 7-[N-3-(4-Fluorophenyl)propionyl]-1-[N-(1,2,3,4-tetrahydro-1-(4-N-(cyclobutylamino)butyl)-6,7-dimethoxyisoquinolinyl)1-4.4-diphenylheptanedihydrochloride] — higher, 9.60

same assay, conditions: Table 2: compounds of formula (VI), by isoquinolinyl moiety R

Point of comparison: `COc1ccc2c(c1)C(C)N(CCCC(CCCNC(=O)CCc1ccc(F)cc1)(c1ccccc1)c1ccccc1)CC2` (centres unmarked) [Example 51, 7-[N-3-(4-Fluorophenylpropionyl]-1-FA-f 1,2,3,4-tetrahydro-1-methyl-7-methoxy-isoguinolinyl)1-4.4-diphen%-lheptanehydrochloride], Ki 1.05 nM. Against it:
- COc1cc2c(cc1F)CCN(CCCC(CCCNC(=O)CCc1ccc(F)cc1)(c1ccccc1)c1ccccc1)C2C (centres unmarked) [Example 60, 7-[N-3-(4-Fluorophenyl)propionyl]-1-[N-(1,2,3,4-tetrahydro-1-methyl-6-fluoro-7-methoxyisoguinofinyl)1-4.4-diphenylheptane hydrochloride] — 1.6-fold higher, 1.7 nM
- COc1ccc2c(c1)CCN(CCCC(CCCNC(=O)CCc1ccc(F)cc1)(c1ccccc1)c1ccccc1)C2C (stereo not drawn) [Example 50, 7-[N-3-(4-Fluorophenyl)propionyl]amino-1-[-1-(1,2,3,4-tetrahydro-1-methv,l-6-methoxyisoquinolinyl)1-4.4-diphenylheptane hydrochloride] — 2.4-fold higher, 2.51 nM
- CC1c2ccccc2CCN1CCCC(CCCNC(=O)CCc1ccc(F)cc1)(c1ccccc1)c1ccccc1 (centres unmarked) [Example 47, 7-[N-3-(4-Fluorophenyl)propionyl]-1-[N-(1,2,3,4-tetrahydro-1-methylisoquinolinyl)1-4.4-diphenylheptane hydrochloride] — 14-fold higher, 14.5 nM
- CC1c2cc(O)c(O)cc2CCN1CCCC(CCCNC(=O)CCc1ccc(F)cc1)(c1ccccc1)c1ccccc1 (centres unmarked) [Example 46, 7-[N-3-(4-Fluorophenyl)propionyl]-1-UN-(1,2,3,4-tetrahydro-1-methyl-6,7-dihydroxyisoguinolinyl)1-4.4-diphenylheptane hydrochloride] — 15-fold higher, 15.5 nM
- CC1c2cc(F)ccc2CCN1CCCC(CCCNC(=O)CCc1ccc(F)cc1)(c1ccccc1)c1ccccc1 (stereo not drawn) [Example 53, 7-[N-3-(4-Fluorophenyy)propionyl]-1-[N-(1,2,3,4-tetrahydro-1-methyl-7-fluoro-isoquinolinyl)l-4,4-diphenylheptane hydrochloride] — 14-fold higher, 14.5 nM
- COc1cc2c(cc1OC)CN(CCCC(CCCNC(=O)CCc1ccc(F)cc1)(c1ccccc1)c1ccccc1)C(C)C2 (centres unmarked) [Example 66, 7-[N-3-(4-Fluorophenyl)propionyl]-1-[N-(1,2,3,4-tetrahydro-3-mekyl-6,7-dimethoxyisoguinolinyl)]-4,4-diphenylheptane hydrochloride] — 1.7-fold lower, 0.617 nM
- COc1ccc2c(c1)C(C)N(CCCC(CCCNC(=O)CCc1ccc(F)cc1)(c1ccccc1)c1ccccc1)C(C)C2 (centres unmarked) [Example 68, 7-[N-3-(4-Fluorophenyl)propionyl]-1-rN-(1,2,3,4-tetrahydro-1.3-dimethyl-7-methoxyisoquinolinyl)1-4.4-diphenylheiltane hydrochloride] — 2.4-fold higher, 2.51 nM
- COc1cc2c(cc1C)CCN(CCCC(CCCNC(=O)CCc1ccc(F)cc1)(c1ccccc1)c1ccccc1)C2C (centres unmarked) [Example 62, 7-[N-3-(4-Fluorophenyl)propionyl]-1-[N-(1,2,3,4-tetrahydro-1.6-dimethyl-7-methoxyisoquinolinyl)1-4.4-diphenylhelptane hydrochloride] — 2.1-fold lower, 0.501 nM

Point of comparison: `CC1c2cc(F)c(Cl)cc2CCN1CCCC(CCCNC(=O)CCc1ccc(F)cc1)(c1ccccc1)c1ccccc1` (centres unmarked) [Example 57, 7-[N-3-(4-Fluorophenyl)propionyl]-1-[N-(1,2,3,4-tetrahydro-1-methyl-6-chloro-7-fluoroisoquinolinyl)1-4.4-diphenylheptane hydrochloride], pKI 8.60. Against it:
- CC1c2cc3c(cc2CCN1CCCC(CCCNC(=O)CCc1ccc(F)cc1)(c1ccccc1)c1ccccc1)OCCO3 (centres unmarked) [Example 49, 7-[N-3-(4-Fluorophenyl)propionyl]amino-1-[N-(1,2,3,4-tetrahydro-1-methyl-6,7-dioxane-isoguinolinyl)1-4.4-diphenylheotane hydrochloride] — lower, 7.90

same assay, conditions: Table 3: compounds of formula (VII), by substituent R'

In the case of `COc1cc2c(cc1OC)C(C)N(CCCC(CCCNC(=O)CCc1ccc(F)c(Cl)c1)(c1ccccc1)c1ccccc1)CC2` (centres unmarked) [Example 76], the Ki is reported as 3.98 nM.
